Test results taken from US9006440B2, “Furopyridine derivatives” (Merck Patent GmbH, priority 2010, dated 2015).

What was measured:
Syk = target: T1, Syk (Homo sapiens, UniProt P43405); experiment: Syk enzyme assay (SYK flash plate assay / Caliper mobility shift); type: biochemical
T1 construct: purchased BPS Bioscience, CA, USA
Experimental: The kinase assay is performed either as 384-well Flashplate assay (for e.g. Topcount measurement) or as 384-well Image-Flashplate assay (for LEADseeker measurement).
2.5 nM SYK, 400 nM Biotin-Aha-Aha-KEDPDYEWPSAKK
and 10 μM ATP (spiked with 0.3 μCi 33P-ATP/well) are incubated in a total volume of 50 μl (60 mM Hepes, 10 mM MgCl2, 1.2 mM Dithiothreitol, 0.02% Brij35, 0.1% BSA, pH 7.5) with or without test compound for 1 hours at 30° C. The reaction is stopped with 25 μl 200 mM EDTA. After 30 Min at 30° C. the liquid is removed and each well washed thrice with 100 μl 0.9% sodium chloride solution. Non-specific reaction is determined in presence of 0.1 μM Staurosporine. Radioactivity is measured with Topcount (when using Flashplates) or with LEADseeker (when using Image-Flashplates) respectively. Results (e.g. IC50-values) are calculated with program tools provided by the IT-department (e.g. Symyx Assay Explorer, Genedata Screener). Enzymatic Assays Using the Caliper LifeSciences Technology
(§1) The assays described here are performed on the Caliper Life Sciences LC3000 system This technology provides data on enzyme activity via measurement of the relative amounts of phosphorylated or unphosphorylated fluorescently labelled substrate peptide at the end of an enzymatic reaction. These different states of peptide are resolved by applying a potential difference across the sample. The presence of the charged phosphate group on the product (as opposed to the substrate) causes a different peptide mobility between the two peptides. This is visualized by excitation of the fluorescent label on the substrate and product peptides and represented as peaks within the analysis software.
(§2) In order to measure inhibitor activity of kinase inhibitors on this technology, a TTP Mosquito liquid handling instrument is used to place 0.25 ul of the appropriate concentration of inhibitor in 100% DMSO (for a dose response curve calculation) into each well of a 384-well plate. To this reaction components are added to a final volume of 25 ul. The table below indicates the sequences and concentrations for the assays described in this report. Standard components are 1 mM DTT (Sigma, D0632), 1 mM MgCl2 (Sigma, M1028), 100 mM HEPES pH 7.5 (Calbiochem, 391338), 0.015% Brij-35 (Sigma, B4184).
(§3) The reaction is incubated for 90 min at 25 C, and then stopped by the addition of 70 ul of Stop buffer (100 mM HEPES pH 7.5, 0.015% Brij-35, 10 mM EDTA (Sigma, E7889)).
(§4) The plate is read on a Caliper LC 3000 in an Off-Chip mobility shift assay format, on a 12-sipper chip. Unphosphorylated substrate and phosphorylated product peptide resolve as separate peaks allowing direct measurement of percentage of conversion of substrate to product. The percent conversion can be plotted against concentration of inhibitor to produce a sigmoidal dose response curve, from which an IC50 can be calculated using GeneData Condoseo or a similar product.

KDR = target: T2, KDR (Homo sapiens, UniProt P35968); experiment: KDR enzymatic assay (Caliper LifeSciences technology); type: biochemical
T2 construct: purchased BPS Bioscience, CA, USA
T2 sequence (P35968 20-1356): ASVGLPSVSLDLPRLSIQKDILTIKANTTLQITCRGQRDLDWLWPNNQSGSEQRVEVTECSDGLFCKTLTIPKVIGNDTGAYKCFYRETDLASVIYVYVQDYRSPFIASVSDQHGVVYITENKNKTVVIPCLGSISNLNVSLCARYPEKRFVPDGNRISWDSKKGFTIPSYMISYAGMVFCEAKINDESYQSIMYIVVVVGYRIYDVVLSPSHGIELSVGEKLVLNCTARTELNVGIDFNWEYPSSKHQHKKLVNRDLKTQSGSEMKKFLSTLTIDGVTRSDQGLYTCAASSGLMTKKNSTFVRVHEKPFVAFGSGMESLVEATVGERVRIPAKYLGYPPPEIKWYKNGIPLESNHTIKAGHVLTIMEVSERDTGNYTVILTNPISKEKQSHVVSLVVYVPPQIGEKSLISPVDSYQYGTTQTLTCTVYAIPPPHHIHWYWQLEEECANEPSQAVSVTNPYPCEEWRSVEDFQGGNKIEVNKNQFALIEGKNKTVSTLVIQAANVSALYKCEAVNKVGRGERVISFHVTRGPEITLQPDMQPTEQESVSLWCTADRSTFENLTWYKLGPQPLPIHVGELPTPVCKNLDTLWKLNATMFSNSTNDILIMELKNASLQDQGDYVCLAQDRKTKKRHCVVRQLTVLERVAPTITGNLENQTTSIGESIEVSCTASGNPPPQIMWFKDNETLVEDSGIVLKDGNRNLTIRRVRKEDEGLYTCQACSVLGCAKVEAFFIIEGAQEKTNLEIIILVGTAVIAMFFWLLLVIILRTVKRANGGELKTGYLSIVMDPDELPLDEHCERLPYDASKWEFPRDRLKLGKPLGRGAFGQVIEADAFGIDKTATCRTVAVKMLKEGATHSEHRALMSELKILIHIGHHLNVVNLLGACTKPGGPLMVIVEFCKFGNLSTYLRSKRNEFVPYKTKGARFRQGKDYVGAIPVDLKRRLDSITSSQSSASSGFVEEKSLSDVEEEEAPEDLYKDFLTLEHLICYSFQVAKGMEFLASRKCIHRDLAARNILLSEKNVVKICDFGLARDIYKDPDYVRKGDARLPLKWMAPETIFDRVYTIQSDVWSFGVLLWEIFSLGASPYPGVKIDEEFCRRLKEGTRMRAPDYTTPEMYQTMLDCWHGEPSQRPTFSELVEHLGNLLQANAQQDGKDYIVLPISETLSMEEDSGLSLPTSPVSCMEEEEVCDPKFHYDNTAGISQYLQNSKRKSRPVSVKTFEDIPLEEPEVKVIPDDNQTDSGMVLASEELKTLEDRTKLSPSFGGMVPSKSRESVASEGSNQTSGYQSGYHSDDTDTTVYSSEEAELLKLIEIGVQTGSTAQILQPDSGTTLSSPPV
Experimental: as §1, §2, §3, §4

Row | Compound | IC50 (Syk) [µM] | IC50 (KDR) [µM]
1 | COc1ccc(-c2ccnc3cc(-c4cc(OC)c(OC)c(OC)c4)oc23)c(OC)c1 [Compound A28, 7-(2,4-Dimethoxy-phenyl)-2-(3,4,5-trimethoxy-phenyl)-furo[3,2-b]pyridine] | < 0.3 | 0.3 to 3
2 | COc1cc(-c2cc3nccc(-c4cccc(O)c4)c3o2)cc(OC)c1OC [Compound A36, 3-[2-(3,4,5-Trimethoxy-phenyl)-furo[3,2-b]pyridin-7-yl]-phenol] | < 0.3 | 3 to 50
3 | COC(=O)c1cccc(-c2cc3nccc(-c4ccccc4)c3o2)c1 [Compound A19, 3-(7-Phenyl-furo[3,2-b]pyridin-2-yl)-benzoic acid methyl ester] | 3 to 50 | 3 to 50
4 | CNC(=O)c1ccc(-c2ccnc3cc(-c4cc(OC)c(OC)c(OC)c4)oc23)cc1 [Compound A13, N-Methyl-4-[2-(3,4,5-trimethoxy-phenyl)-furo[3,2-b]pyridin-7-yl]-benzamide] | < 0.3 | 0.3 to 3
5 | COc1cccc(-c2cc3nccc(-c4cccc(OC)c4)c3o2)c1 [Compound B43, 2,7-Bis-(3-methoxy-phenyl)-furo[3,2-b]pyridine] | 3 to 50 | 3 to 50
6 | COc1cc(-c2cc3nccc(Nc4ccc5c(c4)NC(=O)C(F)(F)O5)c3o2)cc(OC)c1OC [Compound B10, 2,2-Difluoro-6-[2-(3,4,5-trimethoxy-phenyl)-furo[3,2-b]pyridin-7-ylamino]-4H-benzo[1,4]oxazin-3-one] | 0.3 to 3 | < 0.3
7 | COc1cc(-c2ccnc3cc(-c4cc(OC)c(OC)c(OC)c4)oc23)ccn1 [Compound A29, 7-(2-Methoxy-pyridin-4-yl)-2-(3,4,5-trimethoxy-phenyl)-furo[3,2-b]pyridine] | < 0.3 | 0.3 to 3
8 | CN(c1ncccc1CNc1ccnc2cc(-c3ccccc3)oc12)S(C)(=O)=O [Compound B20, N-Methyl-N-{3-[(2-phenyl-furo[3,2-b]pyridin-7-ylamino)-methyl]-pyridin-2-yl}-methanesulfonamide] | 3 to 50 | 
9 | COc1cc(-c2cc3nccc(-c4cccc(OCc5ccccc5)c4)c3o2)cc(OC)c1OC [Compound A31, 7-(3-Benzyloxy-phenyl)-2-(3,4,5-trimethoxy-phenyl)-furo[3,2-b]pyridine] | 3 to 50 | 
10 | C=C(C)c1ccc(-c2cc3nccc(Nc4ccc5[nH]ccc5c4C)c3o2)cc1 [Compound B62, [2-(4-Isopropenyl-phenyl)-furo[3,2-b]pyridin-7-yl]-(4-methyl-1H-indol-5-yl)-amine] | 3 to 50 | 
11 | COC(=O)c1cccc(-c2ccnc3cc(-c4cc(OC)c(OC)c(OC)c4)oc23)c1 [Compound A11, 3-[2-(3,4,5-Trimethoxy-phenyl)-furo[3,2-b]pyridin-7-yl]-benzoic acid methyl ester] | 0.3 to 3 | 
12 | CC(C)(C#N)c1ccc(-c2cc3nccc(-c4ccc(C(C)(C)C#N)cc4)c3o2)cc1 [Compound B55, 2-(4-{2-[4-(Cyano-dimethyl-methyl)-phenyl]-furo[3,2-b]pyridin-7-yl}-phenyl)-2-methyl-propionitrile] | 0.3 to 3 | 
13 | COc1ccc(-c2cc3nccc(-c4ccc(OC)cc4)c3o2)cc1 [Compound B35, 2,7-Bis-(4-methoxy-phenyl)-furo[3,2-b]pyridine] | 3 to 50 | 
14 | Fc1ccc(-c2cc3nccc(-c4ccc(F)cc4)c3o2)cc1 [Compound B6, 2,7-Bis-(4-fluoro-phenyl)-furo[3,2-b]pyridine] | 3 to 50 | 
15 | COc1cccc(-c2cc3nccc(-c4cccc(OC)c4OC)c3o2)c1OC [Compound B42, 2,7-Bis-(2,3-dimethoxy-phenyl)-furo[3,2-b]pyridine] | 3 to 50 | 
16 | Cc1cc(C(=O)NC(C)(C)CO)cc(-c2cc3nccc(-c4ccccc4)c3o2)c1 [Compound A43, N-(2-Hydroxy-1,1-dimethyl-ethyl)-3-methyl-5-(7-phenyl-furo[3,2-b]pyridin-2-yl)-benzamide] | < 0.3 | 
17 | COc1cc(-c2cc3nccc(-c4ccc(C)c5ncccc45)c3o2)cc(OC)c1OC [Compound A26, 8-Methyl-5-[2-(3,4,5-trimethoxy-phenyl)-furo[3,2-b]pyridin-7-yl]-quinoline] | 0.3 to 3 | 
18 | COc1cc(-c2cc3nccc(-c4ccc(C)cc4C)c3o2)cc(OC)c1OC [Compound A32, 7-(2,4-Dimethyl-phenyl)-2-(3,4,5-trimethoxy-phenyl)-furo[3,2-b]pyridine] | 0.3 to 3 | 
19 | COc1cc(-c2cc3nccc(-c4ccc(CNC(C)=O)cc4)c3o2)cc(OC)c1OC [Compound A54, N-{4-[2-(3,4,5-Trimethoxy-phenyl)-furo[3,2-b]pyridin-7-yl]-benzyl}-acetamide] | 0.3 to 3 | 

Further lines, results first:

Row | IC50 (Syk) [µM] | IC50 (KDR) [µM] | Compound
20 | 0.3 to 3 | 0.3 to 3 | Cn1cc(-c2ccnc3cc(-c4ccc(N5CCOCC5)nc4)oc23)cn1 [Compound C24]
21 | 0.3 to 3 | 0.3 to 3 | Cn1cc(-c2ccnc3cc(-c4ccc(OCC(O)CN5CCOCC5)cc4)oc23)cn1 (stereo not shown) [Compound C37]
22 | 0.3 to 3 | 0.3 to 3 | COc1cc(-c2cc3nccc(-c4cnn(C)c4)c3o2)ccc1OCCNC(=O)OC(C)(C)C [Compound C62]
23 | 0.3 to 3 | 0.3 to 3 | Cn1cc(-c2ccnc3cc(-c4ccc(N5CCOCC5)cc4)oc23)cn1 [Compound C49]
24 | < 0.3 | 3 to 50 | Cn1cc(-c2ccnc3cc(-c4ccc5cnn(C)c5c4)oc23)cn1 [Compound C98]
25 | 0.3 to 3 | 0.3 to 3 | Cn1cc(-c2ccnc3cc(-c4ccc5[nH]ccc5c4)oc23)cn1 [Compound C18]
26 | 0.3 to 3 | < 0.3 | COc1cc(-c2cc3nccc(C4=CCOCC4)c3o2)cc(OC)c1OC [Compound C68]
27 | 0.3 to 3 | 3 to 50 | Cn1cc(-c2ccnc3cc(-c4ccc(S(C)(=O)=O)cc4)oc23)cn1 [Compound C34]
28 | 0.3 to 3 | 0.3 to 3 | Cn1cc(-c2ccnc3cc(-c4ccc5c(c4)OCCO5)oc23)cn1 [Compound C17]
29 | 0.3 to 3 | 0.3 to 3 | O=C(Nc1cccc(-c2cc3nccc(-c4ccccc4)c3o2)c1)[C@@H]1CCCN1 [Compound C31]
30 | < 0.3 | 0.3 to 3 | COc1cc(-c2cc3nccc(-c4cccc(S(C)(=O)=O)c4)c3o2)cc(OC)c1OC [Compound C110]
31 | 0.3 to 3 | 3 to 50 | CC(C)c1cccc(-c2cc3nccc(-c4cnn(C)c4)c3o2)c1 [Compound C45]
32 | 0.3 to 3 | 0.3 to 3 | COc1ccc(-c2cc3nccc(-c4cnn(C)c4)c3o2)cc1 [Compound C33]
33 | < 0.3 | 3 to 50 | Cn1cc(-c2ccnc3cc(-c4ccc5cc[nH]c5c4)oc23)cn1 [Compound C19]
34 | 0.3 to 3 |  | COc1cc(-c2cc3nccc(-c4cnn(C)c4)c3o2)ccn1 [Compound C16]
35 | 0.3 to 3 |  | CC(C)Cn1cc(-c2cc3nccc(-c4cnn(C)c4)c3o2)cn1 [Compound C6]
36 | 0.3 to 3 | 0.3 to 3 | Cn1cc(-c2ccnc3cc(-c4ccc(CO)cc4)oc23)cn1 [Compound C59]
37 | 0.3 to 3 |  | CC(=O)c1ccc(-c2cc3nccc(-c4cnn(C)c4)c3o2)cc1 [Compound C95]
38 | < 0.3 |  | Cn1cc(-c2ccnc3cc(-c4ccc(C(C)(C)O)cc4)oc23)cn1 [Compound C100]
39 | 0.3 to 3 |  | Oc1cccc(-c2cc3nccc(-c4ccccc4)c3o2)c1 [Compound C1]
40 | < 0.3 |  | Cn1cc(-c2ccnc3cc(-c4ccc5cn[nH]c5c4)oc23)cn1 [Compound C133]
41 | 0.3 to 3 |  | Cc1cc(-c2cc3nccc(-c4cnn(C)c4)c3o2)cc(C(C)(C)C)c1 [Compound C9]
42 | 0.3 to 3 |  | COc1cc(-c2cc3nccc(-c4ccccc4C(C)C)c3o2)cc(OC)c1OC [Compound C14]
43 | 0.3 to 3 |  | COc1cc(-c2cc3nccc(-c4cnc(N)cc4C)c3o2)cc(OC)c1OC [Compound C75]
44 | 3 to 50 |  | Cn1cc(-c2ccnc3cc(-c4cccc(OCc5ccccc5)c4)oc23)cn1 [Compound C20]
45 | < 0.3 |  | COc1cc(-c2cc3nccc(-c4cccc(C(=O)NCCO)c4)c3o2)cc(OC)c1OC [Compound C5]
